Assay results from paper PMC7956587, “Molecular Docking Studies and Biological Evaluation of Berberine–Benzothiazole Derivatives as an Anti-Influenza Agent via Blocking of Neuraminidase” (International Journal of Molecular Sciences, 2021).
Like-named read-outs stand apart in the source and are kept apart here.

Legend:
[1] = test system: influenza B virus B/Lee/40; assay: In vitro antiviral bioassay (CPE reduction, SRB) in MDCK cells; format: cell-based; conditions: for IC50: Influenza B virus; for TI B/LEE/40: Therapeutic index, TI = CC50/IC50
[2] = test system: influenza A virus A/PR/8/34 (H1N1); assay: as above; format: cell-based; conditions: for IC50: Influenza A virus, MDCK, 48 h; for TI A/PR/8/34 (H1N1): Therapeutic index, TI = CC50/IC50
in vitro = conditions: dog
[3] = test system: influenza B virus B/Maryland/1/59; assay: In vitro antiviral bioassay (CPE reduction, SRB) in MDCK cells; format: cell-based; conditions: for IC50: Influenza B virus, read-out: IC50 B/MARYLAND/1/59; for TI B/MARYLAND/1/59: Therapeutic index, TI = CC50/IC50
[4] = test system: influenza A virus A/Vic/3/75 (H3N2); assay: as above; format: cell-based; conditions: for IC50: Influenza A virus, H3N2, MDCK, 48 h; for TI A/VIC/3/75 (H3N2): Therapeutic index, TI = CC50/IC50
MDCK cells = conditions: dog, 48 h
[5] = target: influenza virus neuraminidase (Influenza A virus, UniProt P03468); assay: Viral neuraminidase inhibition assay (NA-Star kit); format: biochemical, influenza A/PR/8/34 virus; conditions: for activity at 0.1 µg/mL: at 0.1 μg/mL; for activity at 0.1 µg/mL / activity at 1 µg/mL / activity at 10 µg/mL: (Treatment/Virus) × 100, remaining activity; for activity at 1 µg/mL: at 1 μg/mL; for activity at 10 µg/mL: at 10 μg/mL
Chain of influenza virus neuraminidase (P03468 whole entry, looked up): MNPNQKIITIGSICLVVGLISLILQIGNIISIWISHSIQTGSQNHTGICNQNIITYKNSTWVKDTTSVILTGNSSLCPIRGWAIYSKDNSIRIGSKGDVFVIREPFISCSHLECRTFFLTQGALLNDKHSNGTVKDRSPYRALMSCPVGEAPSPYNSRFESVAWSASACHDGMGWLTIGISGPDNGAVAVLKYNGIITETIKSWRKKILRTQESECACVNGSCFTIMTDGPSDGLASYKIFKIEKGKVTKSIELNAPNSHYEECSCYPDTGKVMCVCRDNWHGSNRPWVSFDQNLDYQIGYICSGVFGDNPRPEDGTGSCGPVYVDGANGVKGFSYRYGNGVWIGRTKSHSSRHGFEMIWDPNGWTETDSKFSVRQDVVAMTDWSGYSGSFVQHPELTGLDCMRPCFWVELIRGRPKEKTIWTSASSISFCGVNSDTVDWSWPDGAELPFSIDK

[6] = Cytotoxicity on MDCK cells, SRB method; conditions: dog
[7] = MDCK cells, 50 TCID50, 48 h, mean ± S.D., triplicate

Row | SMILES | IC50 B/LEE/40 [1, 7] | IC50 A/PR/8/34 (H1N1) [2] | CC50 at 48 h (in vitro) [µg/mL] | IC50 B/MARYLAND/1/59 [3, 7] | IC50 A/VIC/3/75 (H3N2) [4] | IC50 [1, 7] [µg/mL] | TI B/LEE/40 [1] | IC50 [2] [µg/mL] | TI A/PR/8/34 (H1N1) [2] | IC50 [3, 7] [µg/mL] | TI B/MARYLAND/1/59 [3] | IC50 [4] [µg/mL] | TI A/VIC/3/75 (H3N2) [4] | CC50 (MDCK cells) [µg/mL] | NA inhibition activity (in words) ([5]; compared with oseltamivir, Figure 1) | activity at 0.1 µg/mL [5] [%] | activity at 1 µg/mL [5] [%] | activity at 10 µg/mL [5] [%] | CC50 at 48 h [6] [µg/mL] | IC50 ([3]; MDCK, 48 h) [µg/mL]
1 | COc1ccc2cc3[n+](cc2c1OCCCCCNc1nc2ccc(C#N)cc2s1)CCc1cc2c(cc1-3)OCO2 [BBD 13] | did not show any activity | did not show any activity | 45.1 ± 0.864 | did not show any activity | did not show any activity |  |  |  |  |  |  |  |  |  |  |  |  |  |  | 
2 | CCOc1ccc2nc(NCCCCCOc3c(OC)ccc4cc5[n+](cc34)CCc3cc4c(cc3-5)OCO4)sc2c1 [BBD 6] |  |  | > 100 |  |  | 38.8 ± 2.08 | 5.712 | 42.8 ± 0.478 | 5.176 | 36.9 ± 2.15 | 6.003 | 60.4 ± 1.35 | 3.663 | 221.4 ± 1.180 |  |  |  |  |  | 
3 | COc1ccc2cc3[n+](cc2c1OCCCCCNc1nc2ccc(C)cc2s1)CCc1cc2c(cc1-3)OCO2 [BBD 4] |  |  | > 100 |  |  | 43.2 ± 0.86 | 7.406 | 37.3 ± 0.669 | 8.655 | 41.6 ± 0.67 | 7.762 | 55 ± 0.87 | 5.862 | 322.6 ± 2.543 | moderate NA inhibition activity |  |  |  |  | 
4 | COc1ccc2cc3[n+](cc2c1OCCCCCNc1nc2ccc(Cl)cc2s1)CCc1cc2c(cc1-3)OCO2 [BBD 7] |  |  | > 100 |  |  | 81.4 ± 3.01 |  | 24.3 ± 0.419 | 19.08 | 88.1 ± 1.16 | 5.259 | 38.8 ± 2.51 | 11.94 | 463.5 ± 3.386 |  | 37.4 | 32.1 | 14.5 |  | 
5 | COc1ccc2cc3[n+](cc2c1OCCCCCNNc1nc2ccccc2s1)CCc1cc2c(cc1-3)OCO2 [BBD 14] |  |  | > 100 |  |  | 70.3 ± 2.24 | 4.327 | 40.3 ± 0.725 | 7.543 | 73.4 ± 2.17 | 4.143 | 56.3 ± 2.06 | 5.403 | 304.3 ± 1.261 |  |  |  |  |  | 
6 | COc1ccc2cc3[n+](cc2c1OCCCCCNc1nc2ccc([N+](=O)[O-])cc2s1)CCc1cc2c(cc1-3)OCO2 [BBD 2] |  |  | > 100 |  |  | 61.7 ± 1.65 | 5.516 | 30.9 ± 0.619 | 11.01 | 65.3 ± 1.88 | 5.212 | 52.2 ± 2.07 | 6.525 | 340.5 ± 1.180 |  |  |  |  |  | 
7 | CCOC(=O)C1=C[C@@H](OC(CC)CC)[C@H](NC(C)=O)[C@@H](N)C1 [OSELTAMIVIR, Oseltamivir phosphate, reference compound] |  |  |  |  |  | 55.9 ± 1.13 | 3.67 | 11.6 ± 1.43 | 17.75 |  | 4.64 | 22.1 ± 1.07 | 9.27 |  |  | 39.1 | 29.1 | 18.3 | > 100 | 44.2 ± 1.83
8 | COc1ccc2cc3[n+](cc2c1OCCCCCNc1nc2ccc(I)cc2s1)CCc1cc2c(cc1-3)OCO2 [BBD 9] |  |  | > 100 |  |  | 69.8 ± 2.57 | 4.331 | 54.5 ± 1.75 | 5.547 | 78.5 ± 2.31 | 3.851 | 54.2 ± 2.09 | 5.585 | 302.5 ± 1.771 |  |  |  |  |  | 
